Measured values taken from patent publication US20260223850A1, “SUBSTITUTED PYRROLIDONE COMPOUND, PREPARATION METHOD THEREFOR, COMPOSITION AND APPLICATION THEREOF” (QINGDAO KINGAGROOT CHEMICAL COMPOUND CO., LTD., priority 2023, published 2026).

Columns and labels:
Assay type in all cases: in vivo
Details in all cases: 120 g a.i./ha, seedling stage sealing, 15 days, fresh weight control rate
Echinochloa crusgalli = experiment: Seedling stage sealing experiment for water-seeding
Source text: (§1) The activity level criteria for plant damage (i.e., growth control rate) are as follows: • Level 9: completely dead; • Level 8: growth control rate greater than or equal to 90% and less than 100%; • Level 7: growth control rate greater than or equal to 80% and less than 90%; • Level 6: growth control rate greater than or equal to 70% and less than 80%; • Level 5: growth control rate greater than or equal to 50% and less than 70%; • Level 4: growth control rate greater than or equal to 30% and less than 50%; • Level 3: growth control rate greater than or equal to 20% and less than 30%; • Level 2: growth control rate greater than or equal to 10% and less than 20%; • Level 1: growth control rate less than 10%; • Level 0: no effect.
(§2) The above growth control rates are fresh weight control rates.
(§3) Echinochloa phyllopogon, Digitaria sanguinalis, Huaidao (rice cultivar), etc. were broadcasted on the surface of nutrition bowls filled with soil and fully covered by soil. The foregoing well-prepared nutrition bowls were then placed in a cultivation box with water filled to a suitable height to keep the soil in the nutrition bowls moist. A test compound of the present invention was individually dissolved with acetone, then diluted into solution of a certain concentration using a certain amount of water, and sprayed using a spray tower. The plants were placed on a greenhouse seedbed and cultured for 15 days, and the experimental results were then collected. The compound was applied at 120, 60, 30 and 15 g a.i./ha in triplicate, and the results were averaged.

Echinochloa phyllopogon = experiment: as above
Source text: as §1, §2, §3

Huaidao (rice cultivar) = experiment: Seedling stage sealing experiment for water-seeding (crop safety)
Source text: as §1, §2, §3

SMILES	Echinochloa crusgalli activity level (growth control rate) (Echinochloa crusgalli)	Echinochloa phyllopogon activity level (growth control rate) (Echinochloa phyllopogon)	Huaidao (rice cultivar) plant damage level (Huaidao (rice cultivar))
Cc1cc(F)cc([C@H]2CN(C)C(=O)[C@@H]2C(=O)Nc2cnn(C)c2Cl)c1 [264′]	9	9	0
Cc1cc(C)cc([C@H]2CN(C)C(=O)[C@@H]2C(=O)Nc2cnn(CC(F)(F)F)c2Cl)c1 [268′]	7 (Level 7: growth control rate greater than or equal to 80% and less than 90%)	6 (Level 6: growth control rate greater than or equal to 70% and less than 80%)	0
Cc1cc(C)cc([C@H]2CN(C)C(=O)[C@@H]2C(=O)Nc2cnn(C)c2F)c1 [271′]	9	9	0
Cc1cc(C)cc([C@H]2CN(C)C(=O)[C@@H]2C(=O)Nc2cnn(C)c2C)c1 [272′]	9	7 (Level 7: growth control rate greater than or equal to 80% and less than 90%)	0
CCc1c(NC(=O)[C@H]2C(=O)N(C)C[C@@H]2c2cc(C)cc(C)c2)cnn1C [273′]	9	6 (Level 6: growth control rate greater than or equal to 70% and less than 80%)	0
C=C(C)c1c(NC(=O)[C@H]2C(=O)N(C)C[C@@H]2c2cc(C)cc(C)c2)cnn1C [276′]	9	6 (Level 6: growth control rate greater than or equal to 70% and less than 80%)	0
CN1C[C@H](c2cc(Br)cc(C(F)(F)F)c2)[C@@H](C(=O)Nc2cnn(C)c2Cl)C1=O [294′]	9	7 (Level 7: growth control rate greater than or equal to 80% and less than 90%)	0
COc1cc(OC)cc([C@H]2CN(C)C(=O)[C@@H]2C(=O)Nc2cnn(C)c2Cl)c1 [302′]	9	6 (Level 6: growth control rate greater than or equal to 70% and less than 80%)	0
Cc1ccc([C@H]2CN(C)C(=O)[C@@H]2C(=O)Nc2cnn(C)c2Cl)cc1C [314′]	9	9	0
CN1C[C@H](c2cc(Cl)c(Cl)c(C(F)(F)F)c2)[C@@H](C(=O)Nc2cnn(C)c2Cl)C1=O [326′]	8 (Level 8: growth control rate greater than or equal to 90% and less than 100%)	7 (Level 7: growth control rate greater than or equal to 80% and less than 90%)	0
CCc1ccc([C@H]2CN(C)C(=O)[C@@H]2C(=O)Nc2cnn(C)c2Cl)s1 [338′]	9	6 (Level 6: growth control rate greater than or equal to 70% and less than 80%)	0
COCc1c(NC(=O)[C@H]2C(=O)N(C)C[C@@H]2c2cccc(C)c2)cnn1C [378′]	9	6 (Level 6: growth control rate greater than or equal to 70% and less than 80%)	0
C=C(C)c1c(NC(=O)[C@H]2C(=O)N(C)C[C@@H]2c2cccc(C)c2)cnn1C [379′]	9	6 (Level 6: growth control rate greater than or equal to 70% and less than 80%)	0
C=CCn1ncc(NC(=O)[C@H]2C(=O)N(C)C[C@@H]2c2cccc(C)c2)c1Cl [381′]	9	6 (Level 6: growth control rate greater than or equal to 70% and less than 80%)	0
